This experiment relates to NAP1L4. As to the kind of experiment: IP-IB of HA-tagged. Type of experiment: binding. To be noted: HA-tagged (PR)12 mixed with HEK293 cell lysates containing increasing concentrations of 1,6-hexanediol.

As to `OCCCCCCO` [1,6-hexanediol], the “immunoprecipitated NAP1L4 signal with increasing 1,6-hexanediol” value is “faded accordingly”.

The values are drawn from article PMC8438627 (The Journal of Cell Biology, 2021).
